The IC50 is the concentration needed to halve the response being measured.

Molecules are shown by their SMILES.

The test deals with human Nav1.7 (Homo sapiens (Human), UniProt Q15858). The experiment in a line: FLIPR membrane potential dye assay (alternative fluorescence assay). The class given is cell-based. As to conditions: recombinant Nav1.7/HEK293 cells. The protocol: In vitro assays were performed in a recombinant cell line expressing cDNA encoding the alpha subunit (Nav1.7, SCN9a, PN1, NE) of human Nav1.7 (Accession No. NM_002977). The cell line was provided by investigators at Yale University (Cummins et al, J. Neurosci. 18(23): 9607-9619 (1998)). For dominant selection of the Nav1.7-expressing clones, the expression plasmid co-expressed the neomycin resistance gene. The cell line was constructed in the human embryonic kidney cell line, HEK293, under the influence of the CMV […] promoter, and stable clones were selected using limiting dilution cloning and antibiotic selection using the neomycin analogue, G418. Recombinant beta and gamma subunits were not introduced into this cell line. Additional cell lines expressing recombinant Nav1.7 cloned from other species can also be used, alone or in combination with various beta subunits, gamma subunits or chaperones.
Chain of human Nav1.7 (Q15858 other isoform, or with tags, fused parts or gaps): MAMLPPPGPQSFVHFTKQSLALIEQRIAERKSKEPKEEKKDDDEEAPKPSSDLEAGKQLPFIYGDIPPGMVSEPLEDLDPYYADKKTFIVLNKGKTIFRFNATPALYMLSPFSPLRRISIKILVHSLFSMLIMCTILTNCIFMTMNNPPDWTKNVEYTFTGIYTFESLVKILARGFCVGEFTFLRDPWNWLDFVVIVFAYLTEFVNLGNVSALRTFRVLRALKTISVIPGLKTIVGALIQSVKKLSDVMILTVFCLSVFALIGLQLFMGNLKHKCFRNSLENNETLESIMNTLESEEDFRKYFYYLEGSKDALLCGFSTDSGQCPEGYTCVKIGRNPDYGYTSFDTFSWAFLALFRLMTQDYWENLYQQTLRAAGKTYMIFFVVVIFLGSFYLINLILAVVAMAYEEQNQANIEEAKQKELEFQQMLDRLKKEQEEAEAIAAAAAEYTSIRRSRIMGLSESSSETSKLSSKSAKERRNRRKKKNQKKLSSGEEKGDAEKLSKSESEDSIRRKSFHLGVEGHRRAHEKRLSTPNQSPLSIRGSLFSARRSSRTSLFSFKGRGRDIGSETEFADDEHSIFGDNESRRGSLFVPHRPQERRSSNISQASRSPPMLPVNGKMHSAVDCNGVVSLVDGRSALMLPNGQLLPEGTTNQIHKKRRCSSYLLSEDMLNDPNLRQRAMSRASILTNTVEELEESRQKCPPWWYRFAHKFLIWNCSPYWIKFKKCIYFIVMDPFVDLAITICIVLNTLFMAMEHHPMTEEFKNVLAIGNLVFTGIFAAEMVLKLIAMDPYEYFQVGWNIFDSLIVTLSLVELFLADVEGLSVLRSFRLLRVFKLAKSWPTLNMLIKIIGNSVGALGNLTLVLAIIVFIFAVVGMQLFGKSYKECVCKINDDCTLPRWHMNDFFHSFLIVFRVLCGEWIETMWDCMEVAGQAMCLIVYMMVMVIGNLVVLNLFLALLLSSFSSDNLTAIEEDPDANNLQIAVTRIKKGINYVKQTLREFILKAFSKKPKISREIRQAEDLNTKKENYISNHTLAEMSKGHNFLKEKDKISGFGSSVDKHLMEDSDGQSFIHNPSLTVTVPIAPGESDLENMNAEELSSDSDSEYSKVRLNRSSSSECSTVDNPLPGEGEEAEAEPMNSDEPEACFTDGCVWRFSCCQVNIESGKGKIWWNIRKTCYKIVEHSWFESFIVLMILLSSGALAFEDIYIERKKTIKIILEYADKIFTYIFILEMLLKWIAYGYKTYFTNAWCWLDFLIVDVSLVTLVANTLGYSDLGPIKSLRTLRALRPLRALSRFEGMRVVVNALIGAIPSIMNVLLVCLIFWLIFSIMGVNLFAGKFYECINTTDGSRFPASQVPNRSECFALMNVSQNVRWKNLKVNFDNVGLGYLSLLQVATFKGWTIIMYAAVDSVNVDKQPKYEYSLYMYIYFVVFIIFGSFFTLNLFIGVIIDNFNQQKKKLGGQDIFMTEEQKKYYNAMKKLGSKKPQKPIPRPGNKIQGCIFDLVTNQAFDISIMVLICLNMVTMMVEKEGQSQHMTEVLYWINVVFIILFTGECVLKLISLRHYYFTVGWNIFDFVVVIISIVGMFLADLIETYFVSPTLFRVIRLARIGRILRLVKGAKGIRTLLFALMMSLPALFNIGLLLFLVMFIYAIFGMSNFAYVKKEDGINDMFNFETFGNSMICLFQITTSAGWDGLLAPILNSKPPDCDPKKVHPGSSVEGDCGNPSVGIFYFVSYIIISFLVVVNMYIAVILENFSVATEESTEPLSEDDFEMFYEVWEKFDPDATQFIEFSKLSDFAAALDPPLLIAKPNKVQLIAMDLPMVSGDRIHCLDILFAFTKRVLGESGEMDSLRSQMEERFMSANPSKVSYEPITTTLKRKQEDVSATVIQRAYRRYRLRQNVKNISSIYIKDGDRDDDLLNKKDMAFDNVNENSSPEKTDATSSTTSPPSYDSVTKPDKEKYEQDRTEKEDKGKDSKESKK
A fluorescence indicator that can be used in alternative fluorescence assays is the blue version membrane potential dye (MDS, Molecular Devices, Sunnyvale, Calif.), a dye that detects changes in molecules following a change in membrane potential. An increase in fluorescence is expected if agonist stimulation provokes a change in membrane potential. Cells expressing Nav1.7 or other sodium channels are incubated with the membrane potential dye 30-60 minutes before the fluorescence assay. In the case of the KCl pre-stimulation version of the assay, the dye and all other components are washed out immediately before the assay, and the dye is then replaced. In the version lacking KCl pre-stimulation, the dye remains on the cells and is not washed out or replaced. The dye is stored in the dark as a lyophilized powder, and then an aliquot dissolved in assay buffer to form a 20×-concentrated stock solution that can be used for several weeks.
In the fluorescence assays, two agonists were used in combination, namely 1) veratridine; and 2) the venom from the yellow scorpion, Leiurus quinquestriatus hebraeus. Veratridine is an alkaloid small molecule that facilitates the capture of channel openings by inhibiting inactivation, and the scorpion venom is a natural preparation that includes peptide toxins selective for different subsets of voltage-gated sodium channels. These scorpion toxins inhibit the fast inactivation of their cognate target channels. Stock solutions of the agonists were prepared to 40 mM in DMSO (veratridine) and 1 mg/mL in dH2O (scorpion venom), and then diluted to make a 4× or 2× stock (depending on the particular assay) in assay buffer, the final concentration being 100 μM (veratridine) and 10 μg/mL (scorpion venom). Both of the agonists were purchased from Sigma Aldrich, St. Louis, Mo.
Test compounds were dissolved in DMSO to yield 10 mM stock solutions. The stock solutions were further diluted using DMSO in 1:3 serial dilution steps with 10 points (10,000 μM, […], 370 μM, 123 μM, 41 μM, 14 μM, 4.6 μM, 1.5 μM and 0.5 μM). The stock solutions were further diluted in assay buffer (1:125) as 4× stock serial dilutions with a DMSO concentration of 0.8% (final [DMSO], in the assay, from the compounds component=0.2%), so that the compounds' final concentrations in the assay were 20 μM, 6.7 μM, 2.2 μM, 0.74 μM, 0.25 μM and 0.08 μM, 0.03 μM, 0.01 μM, 0.003 μM and 0.001 μM. If a particular test article appeared to be especially potent, then the concentration curve was adjusted, e.g., to 10-fold lower concentrations, in order to perform the dose-response in a more relevant concentration range. Compound dilutions were added during the dye-loading and pre-stimulation step, and then again during the fluorescence assay, early in the kinetic read.
The data were analyzed according to methods known to those skilled in the art or using the GraphPad® Prism Program, version 4.0 or higher (available from GraphPad Software, San Diego, Calif.) to determine the IC50 value for the test article. […]

For `NC(=O)C1CCCN(C(=O)c2cc(C(F)(F)F)ccc2Oc2ccc(-c3cccc([C@H](O)CO)n3)cc2)C1` (stereo partly drawn) [compound 173, 1-(2-(4-(6-((S)-1,2-dihydroxyethyl)pyridin-2-yl)phenoxy)-5-(trifluoromethyl)benzoyl)piperidine-3-carboxamide], the IC50 is over 20 µM.
